This passage reports IC50 results from patent US20170349593A1, “BTK INHIBITORS” (MERCK SHARP & DOHME CORP., priority 2014, published 2017).

Usually IC50 stands for the midpoint of a concentration-inhibition curve.

Test [1] addresses T1, BTK enzyme (recombinant full-length BTK, hBTK) (Homo sapiens, UniProt Q06187).
T1 construct: recombinant protein from baculovirus-transfected S 19 cells: full-length BTK, 6 HIS-tag cleaved; 6 HIS-tag (cleaved yes); made in house
The test is described as follows: Btk enzyme activity assay (LANCE TR-FRET). Format: biochemical. The following applies: 50 pM hBTK, 25 μM ATP, 60 minute compound and enzyme incubation, concentration range 1 μM to 0.017 nM, read-out: BTK binding IC50. (Time-resolved FRET reads energy transfer from a long-lived donor to a nearby acceptor.)

The test system of test [2] is adenosine uptake into HeLa cells. The test is described as follows: [3H]Adenosine uptake assay. The following applies: Homo sapiens; accumulation of [3H]adenosine into HeLa cells; concentration range 10 μM to 0.032 nM; read-out: ADU inhibition IC50. The class given is cell-based. The essentials:
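HeLa cells (25 000/well), plated overnight, were preincubated 30 minutes at ambient temperature with compound in HBSS + 5% FBS. Ten-point titrations ran from 10 μM to 0.032 nM final. [3H]adenosine was added from a 500 nM solution for 60 minutes, and uptake was measured by scintillation proximity counting; IC50 came from a 4-parameter fit.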

Structures are written as SMILES.

T1 sequence (Q06187 whole entry): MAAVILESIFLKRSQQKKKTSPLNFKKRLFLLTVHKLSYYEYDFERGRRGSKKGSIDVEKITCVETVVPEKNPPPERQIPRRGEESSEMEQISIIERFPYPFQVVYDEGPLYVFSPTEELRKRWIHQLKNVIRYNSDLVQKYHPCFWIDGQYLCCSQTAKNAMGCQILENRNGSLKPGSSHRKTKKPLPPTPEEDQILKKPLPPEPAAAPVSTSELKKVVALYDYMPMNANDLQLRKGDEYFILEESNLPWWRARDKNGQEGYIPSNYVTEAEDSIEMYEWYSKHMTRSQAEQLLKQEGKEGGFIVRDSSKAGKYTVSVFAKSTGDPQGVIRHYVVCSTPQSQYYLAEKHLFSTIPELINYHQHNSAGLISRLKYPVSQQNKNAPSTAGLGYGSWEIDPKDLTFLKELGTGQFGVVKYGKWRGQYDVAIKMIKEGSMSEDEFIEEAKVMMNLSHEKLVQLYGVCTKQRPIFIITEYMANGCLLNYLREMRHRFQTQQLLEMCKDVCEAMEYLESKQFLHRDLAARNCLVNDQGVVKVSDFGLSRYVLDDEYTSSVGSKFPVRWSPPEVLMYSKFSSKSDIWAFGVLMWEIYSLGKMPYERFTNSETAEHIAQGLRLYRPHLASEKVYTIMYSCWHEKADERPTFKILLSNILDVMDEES

For `CO[C@H](C)C(=O)N1C[C@H](c2nc(-c3ccc(C(=O)Nc4cc(C(F)(F)F)ccn4)cc3F)c3c(N)nccn23)OC[C@@H]1C` [Example 79, 4-(8-amino-3-{(2R,5S)-4-[(2R)-2-methoxypropanoyl]-5-methylmorpholin-2-yl}imidazo[1,5-a]pyrazin-1-yl)-3-fluoro-N-[4-(trifluoromethyl)pyridin-2-yl]benzamide], the values for the IC50 in test [1] and in test [2] were 0.423 nM and 288 nM, respectively.

For the compound `COc1cc(C(=O)Nc2cc(C(F)(F)F)ccn2)ccc1-c1nc([C@H]2CN(C(=O)C3CN(Cc4ccccc4F)C3)[C@@H](C)CO2)n2ccnc(N)c12` [Example 37, 4-{8-amino-3-[(2R,5S)-4-{[1-(2-fluorobenzyl)azetidin-3-yl]carbonyl}-5-methylmorpholin-2-yl]imidazo[1,5-a]pyrazin-1-yl}-3-methoxy-N-[4-(trifluoromethyl)pyridin-2-yl]benzamide], the figures for the IC50 in test [1] and in test [2] were 2.77 nM and 702 nM, respectively.

For the compound `COCCC(=O)N1CC(C(=O)N2C[C@H](c3nc(-c4ccc(C(=O)Nc5cc(C(F)(F)F)ccn5)cc4OC)c4c(N)nccn34)OC[C@@H]2C)C1` [Example 33, 4-{8-amino-3-[(2R,5S)-4-{[1-(3-methoxypropanoyl)azetidin-3-yl]carbonyl}-5-methylmorpholin-2-yl]imidazo[1,5-a]pyrazin-1-yl}-3-methoxy-N-[4-(trifluoromethyl)pyridin-2-yl]benzamide], the IC50 is 2.05 nM in test [1] and not below 10000 nM in test [2].

On to `CCc1cnc(N)c2c(-c3ccc(C(=O)Nc4cc(C(F)(F)F)ccn4)cc3OC)nc([C@H]3CN(C(=O)C4CC4)[C@@H](C)CO3)n12` [Example 9, 4-{8-amino-3-[(2R,5S)-4-(cyclopropylcarbonyl)-5-methylmorpholin-2-yl]-5-ethylimidazo[1,5-a]pyrazin-1-yl}-3-methoxy-N-[4-(trifluoromethyl)pyridin-2-yl]benzamide], for which the values for the IC50 in test [1] and in test [2] were 3.76 nM and 2680 nM, respectively.

Turning to `COc1cc(C(=O)Nc2cc(C(F)(F)F)ccn2)ccc1-c1nc([C@H]2CN(C3CN(Cc4ccc(F)cc4)C3)[C@@H](C)CO2)n2ccnc(N)c12` [Example 31, 4-(8-amino-3-{(2R,5S)-4-[1-(4-fluorobenzyl)azetidin-3-yl]-5-methylmorpholin-2-yl}imidazo[1,5-a]pyrazin-1-yl)-3-methoxy-N-[4-(trifluoromethyl)pyridin-2-yl]benzamide], the half-inhibitory concentration (IC50) in test [1] was found to be 4.49 nM; in test [2], 1040 nM.

In the case of `COc1cc(C(=O)Nc2cc(C(F)(F)F)ccn2)ccc1-c1nc([C@H]2CN(C(=O)C3(C)CC3)[C@@H](C)CO2)n2c(Cl)cnc(N)c12` [Example 18, 4-(8-amino-5-chloro-3-{(2R,5S)-5-methyl-4-[(1-methylcyclopropyl)carbonyl]morpholin-2-yl}imidazo[1,5-a]pyrazin-1-yl)-3-methoxy-N-[4-(trifluoromethyl)pyridin-2-yl]benzamide], the IC50 in test [1] came to 2.8 nM; in test [2], 3230 nM.

As for `CCOc1cc(C(=O)Nc2cc(C(F)(F)F)ccn2)ccc1-c1nc([C@H]2CN(C(=O)C3CC3(F)F)[C@@H](C)CO2)n2c(Cl)cnc(N)c12` (stereo partly drawn) [Example 102, 4-(8-amino-5-chloro-3-{(2R,5S)-4-[(2,2-difluorocyclopropyl)carbonyl]-5-methylmorpholin-2-yl}imidazo[1,5-a]pyrazin-1-yl)-3-ethoxy-N-[4-(trifluoromethyl)pyridin-2-yl]benzamide], the IC50 was determined as 3.12 nM in test [1] and 5930 nM in test [2].

In the case of `CCOc1cc(C(=O)Nc2cc(C(F)(F)F)n(C)n2)ccc1-c1nc([C@H]2CN(C(=O)[C@H](C)O)[C@@H](C)CO2)n2c(Cl)cnc(N)c12` [Example 6, 4-(8-amino-5-chloro-3-{(2R,5S)-4-[(2S)-2-hydroxypropanoyl]-5-methylmorpholin-2-yl}imidazo[1,5-a]pyrazin-1-yl)-3-ethoxy-N-[1-methyl-5-(trifluoromethyl)-1H-pyrazol-3-yl]benzamide], the concentration for half-maximal inhibition (IC50) is 5.73 nM in test [1] and not below 10000 nM in test [2].

Consider `COCC(=O)N1C[C@H](c2nc(-c3ccc(C(=O)Nc4cc(C(F)(F)F)ccn4)cc3)c3c(N)nccn23)OC[C@@H]1C` [Example 78, 4-{8-amino-3-[(2R,5S)-4-(methoxyacetyl)-5-methylmorpholin-2-yl]imidazo[1,5-a]pyrazin-1-yl}-N-[4-(trifluoromethyl)pyridin-2-yl]benzamide], for which the IC50 worked out at 0.738 nM in test [1] and 260 nM in test [2].

Turning to `CCOc1cc(C(=O)Nc2cc(C(F)(F)F)ccn2)ccc1-c1nc([C@H]2CN(C(=O)CC)[C@@H](C)CO2)n2c(Cl)cnc(N)c12` [Example 19, 4-{8-amino-5-chloro-3-[(2R,5S)-5-methyl-4-propanoylmorpholin-2-yl]imidazo[1,5-a]pyrazin-1-yl}-3-ethoxy-N-[4-(trifluoromethyl)pyridin-2-yl]benzamide], the IC50 is 1.23 nM in test [1] and not below 10000 nM in test [2].

As for `COc1cc(C(=O)Nc2cc(C(F)(F)F)ccn2)ccc1-c1nc([C@H]2CN(C(=O)[C@H](C)OC)[C@@H](C)CO2)n2c(Cl)cnc(N)c12` [Example 13, 4-(8-amino-5-chloro-3-{(2R,5S)-4-[(2S)-2-methoxypropanoyl]-5-methylmorpholin-2-yl}imidazo[1,5-a]pyrazin-1-yl)-3-methoxy-N-[4-(trifluoromethyl)pyridin-2-yl]benzamide], the IC50 in test [1] was 3.89 nM; in test [2], 1710 nM.

`C[C@H](O)C(=O)N1C[C@H](c2nc(-c3ccc(C(=O)Nc4cc(C(F)(F)F)ccn4)cc3F)c3c(N)nccn23)OC[C@@H]1C` [Example 84, 4-(8-amino-3-{(2R,5S)-4-[(2S)-2-hydroxypropanoyl]-5-methylmorpholin-2-yl}imidazo[1,5-a]pyrazin-1-yl)-3-fluoro-N-[4-(trifluoromethyl)pyridin-2-yl]benzamide]: the IC50 in test [1] was 0.368 nM; in test [2], 360 nM.

`Nc1nccn2c([C@H]3CN(C(=O)C4CC4)[C@H](CO)CO3)nc(-c3ccc(C(=O)Nc4cc(C(F)(F)F)ccn4)cc3F)c12` [Example 63, 4-{8-amino-3-[(2R,5R)-4-(cyclopropylcarbonyl)-5-(hydroxymethyl)morpholin-2-yl]imidazo[1,5-a]pyrazin-1-yl}-3-fluoro-N-[4-(trifluoromethyl)pyridin-2-yl]benzamide]: the figures for the 50% inhibitory concentration (IC50) in test [1] and in test [2] were 5.28 nM and 48.5 nM, respectively.

On to `CCOc1cc(C(=O)Nc2cc(C(F)(F)F)ccn2)c(F)cc1-c1nc([C@H]2CN(C(=O)C3CC3)[C@@H](C)CO2)n2c(Cl)cnc(N)c12` [Example 105, 4-{8-amino-5-chloro-3-[(2R,5S)-4-(cyclopropylcarbonyl)-5-methylmorpholin-2-yl]imidazo[1,5-a]pyrazin-1-yl}-5-ethoxy-2-fluoro-N-[4-(trifluoromethyl)pyridin-2-yl]benzamide], for which the IC50 in test [1] is 2.52 nM; in test [2], 5160 nM.

For `C[C@H]1CO[C@@H](c2nc(-c3ccc(C(=O)Nc4cc(C(F)(F)F)ccn4)cc3F)c3c(N)nccn23)CN1C(=O)C1(C)CC1` [Example 85, 4-(8-amino-3-{(2R,5S)-5-methyl-4-[(1-methylcyclopropyl)carbonyl]morpholin-2-yl}imidazo[1,5-a]pyrazin-1-yl)-3-fluoro-N-[4-(trifluoromethyl)pyridin-2-yl]benzamide], the IC50 in test [1] was found to be 0.548 nM; in test [2], 189 nM.

In the case of `CCOc1cc(C(=O)Nc2cc(C(F)(F)F)ccn2)ccc1-c1nc([C@H]2CN(C(=O)[C@H](C)OC)[C@@H](C)CO2)n2c(Cl)cnc(N)c12` [Example 21, 4-(8-amino-5-chloro-3-{(2R,5S)-4-[(2S)-2-methoxypropanoyl]-5-methylmorpholin-2-yl}imidazo[1,5-a]pyrazin-1-yl)-3-ethoxy-N-[4-(trifluoromethyl)pyridin-2-yl]benzamide], the figures for the IC50 in test [1] and in test [2] were 1.43 nM and 7270 nM, respectively.

Consider `COCCC(=O)N1C[C@H](c2nc(-c3ccc(C(=O)Nc4cc(C(F)(F)F)ccn4)cc3OC)c3c(N)nccn23)OC[C@@H]1C` [Example 50, 4-{8-amino-3-[(2R,5S)-4-(3-methoxypropanoyl)-5-methylmorpholin-2-yl]imidazo[1,5-a]pyrazin-1-yl}-3-methoxy-N-[4-(trifluoromethyl)pyridin-2-yl]benzamide], for which the values for the IC50 in test [1] and in test [2] were 2.17 nM and 2260 nM, respectively.

For `C[C@H]1CO[C@@H](c2nc(-c3ccc(C(=O)Nc4cc(C(F)(F)F)ccn4)cc3F)c3c(N)nccn23)CN1C(=O)C1(C)COC1` [Example 77, 4-(8-amino-3-{(2R,5S)-5-methyl-4-[(3-methyloxetan-3-yl)carbonyl]morpholin-2-yl}imidazo[1,5-a]pyrazin-1-yl)-3-fluoro-N-[4-(trifluoromethyl)pyridin-2-yl]benzamide], the IC50 came out at 0.44 nM in test [1] and 239 nM in test [2].

`C[C@H]1CO[C@@H](c2nc(-c3ccc(C(=O)Nc4cc(C5CC5)ccn4)cc3F)c3c(N)nccn23)CN1C1CCOCC1` [Example 61, 4-{8-amino-3-[(2R,5S)-5-methyl-4-(tetrahydro-2H-pyran-4-yl)morpholin-2-yl]imidazo[1,5-a]pyrazin-1-yl}-N-(4-cyclopropylpyridin-2-yl)-3-fluorobenzamide]: the figures for the half-inhibitory concentration (IC50) in test [1] and in test [2] were 0.814 nM and 386 nM, respectively.

As for `Nc1c(N[C@H]2C[C@H](c3nc(-c4ccc(C(=O)Nc5cc(C(F)(F)F)ccn5)cc4)c4c(N)nccn43)C2)c(=O)c1=O` [Example 112, 4-(8-amino-3-{trans-3-[(2-amino-3,4-dioxocyclobut-1-en-1-yl)amino]cyclobutyl}imidazo[1,5-a]pyrazin-1-yl)-N-[4-(trifluoromethyl)pyridin-2-yl]benzamide], the 50% inhibitory concentration (IC50) turned out to be 0.254 nM in test [1] and 2270 nM in test [2].
